Patent publication US6638974B1, “Ascorbyl esters for the treatment of cancer” (University of South Florida, priority 1999, dated 2003)

Columns and labels:
IGF1-R [1] = experiment: IGF1-R expression by Western immunoblotting, PANC-1; assay type: cell-based, human; conditions: 150 μM, 24 hours, vs untreated control
Experimental: PANC-1 cells were cultured for 24 hours in MEM+10% FBS and treated with 150 μM Asc-S for 24 hours, Asc-S treated and untreated (control). PANC-1 cells were analyzed by Western immunoblotting as follows: Cell lysates of treated and non-treated PANC-1 cells were obtained. The lysates were sonicated, centrifuged and protein concentration was determined with Pierce BCA protein kit (Pierce Laboratories). A 20 μg of protein was loaded and resolved at 4% to 15% polyacrylamide gradient gel by sodium dodecyl sulfate-polyacrylamide gel electrophoresis (SDS-PAGE) and electroblotted onto a nitrocellulose membrane […]. The membrane was immunoblotted with mouse anti-human IGF1-R antibodies to cross-react the 85 kDa β-subunit of the IGF1-R (Pharmingen, San Diego, Calif.) followed by anti-mouse horseradish peroxidase conjugated secondary antibody (ECL, Amersham Corporation, Arlington Heights, Ill.). Antigen bound to nitrocellulose membrane was detected with the ECL system (Amersham Corporation, Arlington Heights, Ill.). P6 cells (3T3 fibroblast cells, transfected with a CVN plasmid constituitively expressing human IGF1-R) were used as the positive control.
In additional experiments PANC-1 cells were cultured in MEM+10% FBS and treated with different concentrations of Asc-S (e.g. 50, 75, 100, 125, 150 and 200 μM) for 24 hours. […]

IGF1-R [2] = experiment: IGF1-R expression by Western blotting, PC-1; assay type: cell-based, hamster; conditions: 150 μM, 24 hours, vs untreated control
Experimental: This inhibition was dose and time dependent. In fact the exposure of PANC-1 cells to different concentrations of Asc-S (e.g. 50, 75, 100, 125, 150, and 200 μM) for 24 hours in the same conditions, inhibited IGF1-R expression in a dose dependent fashion (FIG. 2A).
The effect of Asc-S on the proliferation of PC-1 and PANC-1 pancreatic tumor cells was studied using MTT assay. The expression of IGF1-R was analyzed by Western blot analysis, using polyclonal IGF1-R antibody (Upstate Biotech). Apoptosis was assessed by in situ hybridization using TUNEL reaction. […] This was associated with significant decrease in IGF1-R expression and increased apoptotic rate as compared to the control. Statistical analysis on the MTT assay was done using Student's T-test.

PANC-1 cells = experiment: Apoptosis by in situ TUNEL assay, PANC-1; assay type: cell-based, human; conditions: 150 μM, 24 hours
Experimental: Detection of Apoptosis By In Situ Hybridization Using TUNEL Reaction: Apoptosis was determined by TdT-mediated dUTP nick end labeling (TUNEL) using an in situ cell death detection kit (Boehringer Mannheim, Indianapolis, Ind.). Asc-S treated and untreated PANC-1 cells were trypsinized and cytospin preparations were obtained. Cells were fixed with paraformaldehyde (4% in PBS, pH 7.4). After a rinse in PBS, the slides were incubated in permeabilization solution. Slides were cross-reacted with TUNEL reaction mixture for 60 minutes at 37° C. in a humidified chamber. Slides were thoroughly rinsed and reacted with alkaline phosphatase substrate solution for five to ten minutes (Vector Laboratories, Burlington, Mass.). The slides were analyzed under light microscope. These experiments were performed in duplicate.

T98G cells [3] = experiment: MTT cell proliferation assay, T98G; assay type: cell-based, human; conditions: for inhibition at 50 µM / inhibition at 100 µM / inhibition at 175 µM: Homo sapiens, T98G
Experimental: T98G cell proliferation: Murine (G26) and human glioma (U-373) cell proliferation was inhibited following exposure to ascorbyl esters (Naidu et al., 1993a and 1993b). The cell proliferation was assessed by [^3H] thymidine incorporation and MTT assay (Naidu et al., 1993a, 1993b and 1996). […] The T98G cells were cultured for 24 hours in MEM+10% FBS, and, when confluent, were treated with 0 (untreated control), 50, 75, 100, 125, 150 and 175 μM Asc-S. Appropriate untreated controls were included. The cell proliferation was measured by MTT assay.

IGF1-R [4] = experiment: IGF1-R expression by Western immunoblotting, T98G; assay type: cell-based, human; conditions: 100 μM, 24 hours, MEM+10% FBS
Experimental: (§1) The T98G and U-373 cells were cultured for 24 hours in MEM+10% FBS and when confluent were treated with 100 μM and 75 μM, Asc-S for 24 hours, respectively. […] In addition, it was also observed that the inhibition of IGF1-R expression was dose and time dependent. The T98G cells culture in MEM+10% FBS and treated with different concentrations of Asc-S, e.g. 50, 75, 100, 125, 150 and 175 μM for 24 hours, inhibited IGF1-R in a dose dependent fashion (FIG. 8C). The T98G cells treated with 100 μM Asc-S for different time points, e.g. 1, 3, 6, 12 and 24 hours inhibited IGF1-R in a time dependent manner (FIG. 8D). IGF1-R expression was evaluated by Western immunoblotting technique with rabbit-antihuman IGF1-R antibodies (Upstate Biotechnology, Lake Placid, N.Y.) with HRP conjugated anti-rabbit secondary antibody.
(§2) The inhibition of IGF1-R expression was also dose and time dependent. […] The following are depicted in FIG. 8B: Lane 1: P6 positive control for IGF1-R […]; Lane 2: untreated T98G cells; Lane 3: Asc-S (125 μM) treated T98G cells. […]

IGF1-R [5] = experiment: IGF1-R expression by Western immunoblotting, U-373; assay type: cell-based, human; conditions: 75 μM, 24 hours, MEM+10% FBS
Experimental: as §1, §2

T98G cells [6] = experiment: Apoptosis by in situ TUNEL assay, T98G; assay type: cell-based, human; conditions: 100 μM, 24 hours
Experimental: Apoptosis by in situ TUNNEL assay: This experiment was designed to test the hypothesis that down regulation of IGF1-R facilitates apoptosis in T98G cells. […] In addition, to test whether Asc-S treatment induces apoptosis in normal cells, rat astrocyte cells in primary culture were treated with 100 μM Asc-S for 24 hours. […] The increased apoptosis in the Asc-S treated T98G cells is due to down regulation of IGF1-R.
In FIG. 10, apoptosis was evaluated by in situ immunohistochemical detection and quantification at a single cell level.

CCCCCCCCCCCCCCCCCC(=O)OC[C@H](O)[C@H]1OC(=O)C(O)=C1O [Asc-S, Ascorbyl stearate]
IGF1-R expression, PANC-1 cells (Western blotting) (IGF1-R [1]): significantly lower number of receptors | IGF1-R expression, PC-1 cells (Western blotting) (IGF1-R [2]): significantly lower number of receptors | apoptosis (in situ TUNEL), PANC-1 (PANC-1 cells): significant increase in apoptosis | T98G cell proliferation (MTT assay) (T98G cells [3]; 50-175 μM Asc-S, 24 hours): inhibited cell proliferation in a dose dependent manner | inhibition at 50 µM (T98G cells [3]; cultured with FBS, 50 μM): 8.7% | inhibition at 100 µM (T98G cells [3]; cultured with FBS, 100 μM): 38.5% | inhibition at 175 µM (T98G cells [3]; cultured with FBS, 175 μM): 87.2% | inhibition at 50 µM (T98G cells [3]; with IGF-1, 50 μM): 15.3% | inhibition at 100 µM (T98G cells [3]; with IGF-1, 100 μM): 54.2% | inhibition at 175 µM (T98G cells [3]; with IGF-1, 175 μM): 87.7% | IGF1-R expression, T98G cells (IGF1-R [4]): significantly down regulated | IGF1-R expression, U-373 cells (IGF1-R [5]): significantly down regulated | apoptosis (in situ TUNEL), T98G cells (T98G cells [6]): significant increase in apoptosis
